# Test results from ChEMBL document CHEMBL3045460, “Antifungal, mosquito deterrent, and larvicidal activity of N-(benzylidene)-3-cyclohexylpropionic acid hydrazide derivatives” (2013).
# Activity calls are given as the source filed them. No cut-off for these calls is given here.
# Tested on: Aedes aegypti
# Assay: Insecticidal activity against first-instar larval stage of Aedes aegypti assessed as mortality at 1.6 ppm after 24 hr
# Assay type: functional, organism-based
# Conditions: not given
row,SMILES,Activity
1,CC(C)c1ccc(/C=N\NC(=O)CCC2CCCCC2)cc1,inactive

# Tested on: Aedes aegypti
# Assay: Insecticidal activity against first-instar larval stage of Aedes aegypti assessed as mortality at 1.6 ppm after 48 hr
# Assay type: functional
# Conditions: not given
row,SMILES,mortality at 1.6 ppm
1,CC(C)c1ccc(/C=N\NC(=O)CCC2CCCCC2)cc1,14.7%

# Tested on: Aedes aegypti
# Assay: Insecticidal activity against first-instar larval stage of Aedes aegypti assessed as mortality at 100 ppm after 24 hr
# Assay type: functional
# Conditions: not given
row,SMILES,mortality at 100 ppm
1,CC(C)c1ccc(/C=N\NC(=O)CCC2CCCCC2)cc1,80%

# Tested on: Colletotrichum fragariae
# Assay: Antifungal activity against Colletotrichum fragariae assessed as growth inhibition at 0.3 to 30 uM after 48 to 72 hr by 96-well microdilution broth assay
# Assay type: functional, organism-based
# Conditions: not given
row,SMILES,growth inhibition (GI)
1,O=C(CCC1CCCCC1)N/N=C\c1ccc([N+](=O)[O-])cc1,inactive
2,O=C(CCC1CCCCC1)N/N=C\c1ccccc1,inactive
3,O=C(CCC1CCCCC1)N/N=C\c1ccc(Cl)cc1,inactive
4,Cc1ccc(/C=N\NC(=O)CCC2CCCCC2)cc1,inactive
5,O=C(CCC1CCCCC1)N/N=C\c1ccc(O)cc1,inactive
6,O=C(CCC1CCCCC1)N/N=C\c1ccc(F)cc1,inactive
7,CN(C)c1ccc(/C=N\NC(=O)CCC2CCCCC2)cc1,inactive
8,O=C(CCC1CCCCC1)N/N=C\c1ccc(Br)cc1,inactive
9,COc1ccc(/C=N\NC(=O)CCC2CCCCC2)cc1,inactive
10,CC(C)c1ccc(/C=N\NC(=O)CCC2CCCCC2)cc1,inactive

# Tested on: Aedes aegypti
# Assay: Insecticidal activity against first-instar larval stage of Aedes aegypti assessed as mortality at 50 ppm after 24 hr
# Assay type: functional
# Conditions: not given
row,SMILES,mortality at 50 ppm
1,CC(C)c1ccc(/C=N\NC(=O)CCC2CCCCC2)cc1,70%

# Tested on: Aedes aegypti
# Assay: Insecticidal activity against first-instar larval stage of Aedes aegypti assessed as mortality at 25 ppm after 24 hr
# Assay type: functional
# Conditions: not given
row,SMILES,mortality at 25 ppm
1,CC(C)c1ccc(/C=N\NC(=O)CCC2CCCCC2)cc1,30%

# Tested on: Aedes aegypti
# Assay: Insecticidal activity against first-instar larval stage of Aedes aegypti assessed as mortality at 0.8 ppm after 24 hr
# Assay type: functional, organism-based
# Conditions: not given
row,SMILES,Activity
1,CC(C)c1ccc(/C=N\NC(=O)CCC2CCCCC2)cc1,inactive

# Tested on: Fusarium oxysporum
# Assay: Antifungal activity against Fusarium oxysporum assessed as growth inhibition at 0.3 to 30 uM after 48 to 72 hr by 96-well microdilution broth assay
# Assay type: functional, organism-based
# Conditions: not given
row,SMILES,growth inhibition (GI)
1,O=C(CCC1CCCCC1)N/N=C\c1ccc([N+](=O)[O-])cc1,inactive
2,O=C(CCC1CCCCC1)N/N=C\c1ccccc1,inactive
3,O=C(CCC1CCCCC1)N/N=C\c1ccc(Cl)cc1,inactive
4,Cc1ccc(/C=N\NC(=O)CCC2CCCCC2)cc1,inactive
5,O=C(CCC1CCCCC1)N/N=C\c1ccc(O)cc1,inactive
6,O=C(CCC1CCCCC1)N/N=C\c1ccc(F)cc1,inactive
7,CN(C)c1ccc(/C=N\NC(=O)CCC2CCCCC2)cc1,inactive
8,O=C(CCC1CCCCC1)N/N=C\c1ccc(Br)cc1,inactive
9,COc1ccc(/C=N\NC(=O)CCC2CCCCC2)cc1,inactive
10,CC(C)c1ccc(/C=N\NC(=O)CCC2CCCCC2)cc1,inactive

# Tested on: Diaporthe ampelina
# Assay: Antifungal activity against Diaporthe ampelina assessed as growth inhibition at 30 uM after 144 hr by 96-well microdilution broth assay
# Assay type: functional
# Conditions: read-out: GI
row,SMILES,inhibition of growth at 30 µM
1,O=C1C2CC=CCC2C(=O)N1SC(Cl)(Cl)Cl (centres undefined) [CAPTAN],99.2%
2,O=C(CCC1CCCCC1)N/N=C\c1ccc(F)cc1,83.6%
3,CC(C)c1ccc(/C=N\NC(=O)CCC2CCCCC2)cc1,94%

# Tested on: Colletotrichum gloeosporioides
# Assay: Antifungal activity against Colletotrichum gloeosporioides assessed as growth inhibition at 0.3 to 30 uM after 48 to 72 hr by 96-well microdilution broth assay
# Assay type: functional, organism-based
# Conditions: not given
row,SMILES,growth inhibition (GI)
1,O=C(CCC1CCCCC1)N/N=C\c1ccc([N+](=O)[O-])cc1,inactive
2,O=C(CCC1CCCCC1)N/N=C\c1ccccc1,inactive
3,O=C(CCC1CCCCC1)N/N=C\c1ccc(Cl)cc1,inactive
4,Cc1ccc(/C=N\NC(=O)CCC2CCCCC2)cc1,inactive
5,O=C(CCC1CCCCC1)N/N=C\c1ccc(O)cc1,inactive
6,O=C(CCC1CCCCC1)N/N=C\c1ccc(F)cc1,inactive
7,CN(C)c1ccc(/C=N\NC(=O)CCC2CCCCC2)cc1,inactive
8,O=C(CCC1CCCCC1)N/N=C\c1ccc(Br)cc1,inactive
9,COc1ccc(/C=N\NC(=O)CCC2CCCCC2)cc1,inactive
10,CC(C)c1ccc(/C=N\NC(=O)CCC2CCCCC2)cc1,inactive

# Tested on: Colletotrichum acutatum
# Assay: Antifungal activity against Colletotrichum acutatum assessed as growth inhibition at 0.3 to 30 uM after 48 to 72 hr by 96-well microdilution broth assay
# Assay type: functional, organism-based
# Conditions: not given
row,SMILES,growth inhibition (GI)
1,O=C(CCC1CCCCC1)N/N=C\c1ccc([N+](=O)[O-])cc1,inactive
2,O=C(CCC1CCCCC1)N/N=C\c1ccccc1,inactive
3,O=C(CCC1CCCCC1)N/N=C\c1ccc(Cl)cc1,inactive
4,Cc1ccc(/C=N\NC(=O)CCC2CCCCC2)cc1,inactive
5,O=C(CCC1CCCCC1)N/N=C\c1ccc(O)cc1,inactive
6,O=C(CCC1CCCCC1)N/N=C\c1ccc(F)cc1,inactive
7,CN(C)c1ccc(/C=N\NC(=O)CCC2CCCCC2)cc1,inactive
8,O=C(CCC1CCCCC1)N/N=C\c1ccc(Br)cc1,inactive
9,COc1ccc(/C=N\NC(=O)CCC2CCCCC2)cc1,inactive
10,CC(C)c1ccc(/C=N\NC(=O)CCC2CCCCC2)cc1,inactive

# Tested on: Aedes aegypti
# Assay: Insecticidal activity against first-instar larval stage of Aedes aegypti assessed as mortality after 48 hr
# Assay type: functional
# Conditions: not given
row,SMILES,LD90
1,CC(C)c1ccc(/C=N\NC(=O)CCC2CCCCC2)cc1,19.1 ppm

# Same assay, conditions: Aedes aegypti, Instar larval stage, 48 h; read-out: LD50 (the source's name)
row,SMILES,LC50
1,CC(C)c1ccc(/C=N\NC(=O)CCC2CCCCC2)cc1,4.35 µg/mL

# Tested on: Aedes aegypti
# Assay: Insecticidal activity against first-instar larval stage of Aedes aegypti assessed as mortality after 24 hr
# Assay type: functional
# Conditions: not given
row,SMILES,LD90
1,CC(C)c1ccc(/C=N\NC(=O)CCC2CCCCC2)cc1,297.8 ppm

# Same assay, conditions: Aedes aegypti, Instar larval stage, 24 h; read-out: LD50 (the source's name)
row,SMILES,LC50
1,CC(C)c1ccc(/C=N\NC(=O)CCC2CCCCC2)cc1,57.4 µg/mL

# Tested on: Aedes aegypti
# Assay: Insecticidal activity against female adult Aedes aegypti fed on CPDA-1+ATP assessed as biting deterrence activity at 25 nmol/cm2 by six-celled K & D module bioassay
# Assay type: functional
# Conditions: not given
row,SMILES,Activity
1,CCN(CC)C(=O)c1cccc(C)c1 [DIETHYLTOLUAMIDE],80%
2,O=C(CCC1CCCCC1)N/N=C\c1ccc([N+](=O)[O-])cc1,22%
3,O=C(CCC1CCCCC1)N/N=C\c1ccccc1,>50%
4,O=C(CCC1CCCCC1)N/N=C\c1ccc(Cl)cc1,>50%
5,Cc1ccc(/C=N\NC(=O)CCC2CCCCC2)cc1,22%
6,O=C(CCC1CCCCC1)N/N=C\c1ccc(O)cc1,22%
7,CN(C)c1ccc(/C=N\NC(=O)CCC2CCCCC2)cc1,22%
8,O=C(CCC1CCCCC1)N/N=C\c1ccc(Br)cc1,>50%
9,COc1ccc(/C=N\NC(=O)CCC2CCCCC2)cc1,22%
10,CC(C)c1ccc(/C=N\NC(=O)CCC2CCCCC2)cc1,22%

# Tested on: Botrytis cinerea
# Assay: Antifungal activity against Botryotinia fuckeliana assessed as growth inhibition at 0.3 to 30 uM after 48 to 72 hr by 96-well microdilution broth assay
# Assay type: functional, organism-based
# Conditions: not given
row,SMILES,growth inhibition (GI)
1,O=C(CCC1CCCCC1)N/N=C\c1ccc([N+](=O)[O-])cc1,inactive
2,O=C(CCC1CCCCC1)N/N=C\c1ccccc1,inactive
3,O=C(CCC1CCCCC1)N/N=C\c1ccc(Cl)cc1,inactive
4,Cc1ccc(/C=N\NC(=O)CCC2CCCCC2)cc1,inactive
5,O=C(CCC1CCCCC1)N/N=C\c1ccc(O)cc1,inactive
6,O=C(CCC1CCCCC1)N/N=C\c1ccc(F)cc1,inactive
7,CN(C)c1ccc(/C=N\NC(=O)CCC2CCCCC2)cc1,inactive
8,O=C(CCC1CCCCC1)N/N=C\c1ccc(Br)cc1,inactive
9,COc1ccc(/C=N\NC(=O)CCC2CCCCC2)cc1,inactive
10,CC(C)c1ccc(/C=N\NC(=O)CCC2CCCCC2)cc1,inactive

# Tested on: Phomopsis obscurans
# Assay: Antifungal activity against Phomopsis obscurans assessed as growth inhibition at 30 uM after 144 hr by 96-well microdilution broth assay
# Assay type: functional
# Conditions: Paraphomopsis obscurans, read-out: GI
row,SMILES,inhibition of growth at 30 µM
1,Cc1ccc(/C=N\NC(=O)CCC2CCCCC2)cc1,86.7%
2,O=C1C2CC=CCC2C(=O)N1SC(Cl)(Cl)Cl (centres undefined) [CAPTAN],100%
3,O=C(CCC1CCCCC1)N/N=C\c1ccc(F)cc1,86.9%
4,COc1ccc(/C=N\NC(=O)CCC2CCCCC2)cc1,74.1%
5,CC(C)c1ccc(/C=N\NC(=O)CCC2CCCCC2)cc1,99.5%

# Tested on: Aedes aegypti
# Assay: Insecticidal activity against first-instar larval stage of Aedes aegypti assessed as mortality at 0.8 ppm after 48 hr
# Assay type: functional
# Conditions: not given
row,SMILES,mortality at 0.8 ppm
1,CC(C)c1ccc(/C=N\NC(=O)CCC2CCCCC2)cc1,4%
